Measurements as given in ChEMBL document CHEMBL1949552, “Synthesis and interaction with midkine of biotinylated chondroitin sulfate tetrasaccharides” (Bioorg Med Chem Lett, 2012).

Target: T1, Midkine (Homo sapiens, UniProt P21741)
T1 sequence (P21741 whole entry): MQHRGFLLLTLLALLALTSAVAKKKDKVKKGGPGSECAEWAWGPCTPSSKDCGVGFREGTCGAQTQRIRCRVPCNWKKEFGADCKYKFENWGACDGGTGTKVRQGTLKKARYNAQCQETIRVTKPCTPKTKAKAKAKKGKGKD
Experiment: Binding affinity to recombinant midkine after 3 mins

Structure (SMILES)	Kd [nM]
CC(=O)N[C@H]1[C@H](O[C@H]2[C@H](O)[C@@H](O)[C@H](O[C@H]3[C@@H](O)[C@@H](CO)O[C@@H](O[C@H]4[C@H](O)[C@@H](O)[C@H](OCCNC(=O)CCOCCOCCOCCOCCNC(=O)CCCC[C@@H]5SC[C@@H]6NC(=O)N[C@@H]65)O[C@@H]4C(=O)O)[C@@H]3NC(C)=O)O[C@@H]2C(=O)O)O[C@H](CO)[C@H](O)[C@@H]1O	2030
CC(=O)N[C@H]1[C@H](O[C@H]2[C@H](O)[C@@H](O)[C@H](O[C@@H]3[C@@H](NC(C)=O)[C@H](O[C@H]4[C@H](O)[C@@H](O)[C@H](OCCNC(=O)CCOCCOCCOCCOCCNC(=O)CCCC[C@@H]5SC[C@@H]6NC(=O)N[C@@H]65)O[C@@H]4C(=O)O)O[C@H](CO)[C@@H]3OS(=O)(=O)O)O[C@@H]2C(=O)O)O[C@H](CO)[C@H](OS(=O)(=O)O)[C@@H]1O	17.8
CC(=O)N[C@H]1[C@H](O[C@H]2[C@H](O)[C@@H](O)[C@H](O[C@@H]3[C@@H](NC(C)=O)[C@H](O[C@H]4[C@H](O)[C@@H](O)[C@H](OCCNC(=O)CCOCCOCCOCCOCCNC(=O)CCCC[C@@H]5SC[C@@H]6NC(=O)N[C@@H]65)O[C@@H]4C(=O)O)O[C@H](CO)[C@@H]3OS(=O)(=O)O)O[C@@H]2C(=O)O)O[C@H](COS(=O)(=O)O)[C@H](OS(=O)(=O)O)[C@@H]1O	11.6
CC(=O)N[C@H]1[C@H](O[C@H]2[C@H](O)[C@@H](O)[C@H](O[C@@H]3[C@@H](NC(C)=O)[C@H](O[C@H]4[C@H](O)[C@@H](O)[C@H](OCCNC(=O)CCOCCOCCOCCOCCNC(=O)CCCC[C@@H]5SC[C@@H]6NC(=O)N[C@@H]65)O[C@@H]4C(=O)O)O[C@H](COS(=O)(=O)O)[C@@H]3OS(=O)(=O)O)O[C@@H]2C(=O)O)O[C@H](COS(=O)(=O)O)[C@H](OS(=O)(=O)O)[C@@H]1O	2.62
